Experimental data from patent publication US20260152491A1, “PESTICIDALLY ACTIVE HETEROCYCLIC DERIVATIVES WITH SULFUR CONTAINING SUBSTITUENTS” (SYNGENTA CROP PROTECTION AG, priority 2022, published 2026).

How the values were obtained:
Assay type in all cases: in vivo
[1] = tested on: Plutella xylostella; test: Activity against Plutella xylostella (diamond back moth), artificial diet in 24-well plates; details: 192 h, application rate 200 ppm, eggs, 8 days after infestation, in comparison to untreated samples, read-out: effect in at least one of the two categories (mortality or growth inhibition)
Description: Example B6: Activity Against Plutella xylostella (Diamond Back Moth)
24-well microtiter plates with artificial diet were treated with aqueous test solutions prepared from 10'000 ppm DMSO stock solutions by pipetting. After drying, Plutella eggs were pipetted through a plastic stencil onto a gel blotting paper and the plate was closed with it. The samples were assessed for mortality and growth inhibition in comparison to untreated samples 8 days after infestation.

[2] = tested on: Diabrotica balteata; test: Activity against Diabrotica balteata (corn root worm), maize sprouts sprayed; details: 96 h, application rate 200 ppm, L2 larvae, 4 days after infestation, in comparison to untreated samples, read-out: effect in at least one of the two categories (mortality or growth inhibition)
Description: Example B2: Activity Against Diabrotica Balteata (Corn Root Worm)
Maize sprouts placed onto an agar layer in 24-well microtiter plates were treated with aqueous test solutions prepared from 10'000 ppm DMSO stock solutions by spraying. After drying, the plates were infested with L2 larvae (6 to 10 per well). The samples were assessed for mortality and growth inhibition in comparison to untreated samples 4 days after infestation.

[3] = tested on: Chilo suppressalis; test: Activity against Chilo suppressalis (striped rice stemborer), artificial diet in 24-well plates; details: 144 h, application rate 200 ppm, L2 larvae, 6 days after infestation, in comparison to untreated samples, read-out: control (at least one of mortality, anti-feedant effect, growth inhibition)
Description: Example B1: Activity Against Chilo suppressalis (Striped Rice Stemborer)
24-well microtiter plates with artificial diet were treated with aqueous test solutions prepared from 10'000 ppm DMSO stock solutions by pipetting. After drying, the plates were infested with L2 larvae (6-8 per well). The samples were assessed for mortality, anti-feeding effect, and growth inhibition in comparison to untreated samples 6 days after infestation. Control of Chilo suppressalis by a test sample is given when at least one of the categories mortality, anti-feedant effect, and growth inhibition is higher than the untreated sample.

[4] = tested on: Myzus persicae; test: Activity against Myzus persicae (green peach aphid), systemic activity, pea seedling roots in test solution; details: 144 h, test rate 24 ppm, aphid population of mixed ages, 6 days after placing seedlings into test solutions
Description: Example B5: Activity Against Myzus persicae (Green Peach Aphid) Systemic Activity
Roots of pea seedlings infested with an aphid population of mixed ages were placed directly into aqueous test solutions prepared from 10'000 DMSO stock solutions. The samples were assessed for mortality 6 days after placing seedlings into test solutions.

[5] = tested on: Spodoptera littoralis; test: Activity against Spodoptera littoralis (Egyptian cotton leaf worm), cotton leaf discs sprayed; details: foliar, 72 h, application rate 200 ppm, L1 larvae, 3 days after infestation, in comparison to untreated samples, read-out: control (at least one of mortality, anti-feedant effect, growth inhibition)
Description: Example B7: Activity Against Spodoptera littoralis (Egyptian Cotton Leaf Worm)
Cotton leaf discs were placed onto agar in 24-well microtiter plates and sprayed with aqueous test solutions prepared from 10'000 ppm DMSO stock solutions. After drying the leaf discs were infested with five L1 larvae. The samples were assessed for mortality, anti-feeding effect, and growth inhibition in comparison to untreated samples 3 days after infestation. Control of Spodoptera littoralis by a test sample is given when at least one of the categories mortality, anti-feedant effect, and growth inhibition is higher than the untreated sample.

[6] = tested on: Euschistus heros; test: Activity against Euschistus heros (neotropical brown stink bug), soybean leaves sprayed; details: 120 h, application rate 200 ppm, N2 nymphs, 5 days after infestation, in comparison to untreated samples, read-out: effect in at least one of the two categories (mortality or growth inhibition)
Description: Example B3: Activity Against Euschistus heros (Neotropical Brown Stink Bug)
Soybean leaves on agar in 24-well microtiter plates were sprayed with aqueous test solutions prepared from 10'000 ppm DMSO stock solutions. After drying the leaves were infested with N2 nymphs. The samples were assessed for mortality and growth inhibition in comparison to untreated samples 5 days after infestation.

[7] = tested on: Myzus persicae; test: Activity against Myzus persicae (green peach aphid), feeding/contact activity, sunflower leaf discs; details: foliar, 144 h, application rate 200 ppm, aphid population of mixed ages, 6 days after infestation
Description: Example B4: Activity Against Myzus persicae (Green Peach Aphid) Feeding/Contact Activity
Sunflower leaf discs were placed onto agar in a 24-well microtiter plate and sprayed with aqueous test solutions prepared from 10'000 ppm DMSO stock solutions. After drying, the leaf discs were infested with an aphid population of mixed ages. The samples were assessed for mortality 6 days after infestation.

CCS(=O)(=O)c1cc(C2(C#N)CC2)cnc1-c1coc2cc(Cl)ccc2c1=O [P.1, 1-[6-(7-chloro-4-oxo-chromen-3-yl)-5-ethylsulfonyl-3-pyridyl]-cyclopropanecarbonitrile]
≥ 80%: percent effect (mortality or growth inhibition) at 200 ppm [1] | percent effect (mortality or growth inhibition) at 200 ppm [2] | percent control (mortality, anti-feedant effect or growth inhibition) at 200 ppm [3] | mortality at 24 ppm [4] | percent control (mortality, anti-feedant effect or growth inhibition) at 200 ppm [5] | percent effect (mortality or growth inhibition) at 200 ppm [6] | mortality at 200 ppm [7]

CCS(=O)(=O)c1cc(C2(C#N)CC2)cnc1-c1coc2cc(I)ccc2c1=O [P.2, 1-[5-ethylsulfonyl-6-(7-iodo-4-oxo-chromen-3-yl)-3-pyridyl]cyclopropanecarbonitrile]
≥ 80%: percent effect (mortality or growth inhibition) at 200 ppm [1] | percent effect (mortality or growth inhibition) at 200 ppm [2] | percent control (mortality, anti-feedant effect or growth inhibition) at 200 ppm [3] | percent control (mortality, anti-feedant effect or growth inhibition) at 200 ppm [5] | percent effect (mortality or growth inhibition) at 200 ppm [6] | mortality at 200 ppm [7]

CCS(=O)(=O)c1cc(C2(C#N)CC2)cnc1-c1coc2cc(Br)ccc2c1=O [P.3, 1-[6-(7-bromo-4-oxo-chromen-3-yl)-5-ethylsulfonyl-3-pyridyl]-cyclopropanecarbonitrile]
≥ 80%: percent effect (mortality or growth inhibition) at 200 ppm [1] | percent effect (mortality or growth inhibition) at 200 ppm [2] | percent control (mortality, anti-feedant effect or growth inhibition) at 200 ppm [3] | percent control (mortality, anti-feedant effect or growth inhibition) at 200 ppm [5] | percent effect (mortality or growth inhibition) at 200 ppm [6]

CCS(=O)(=O)c1cc(C2(C#N)CC2)cnc1-c1coc2cc(F)ccc2c1=O [P.4, 1-[5-ethylsulfonyl-6-(7-fluoro-4-oxo-chromen-3-yl)-3-pyridyl]cyclopropane-carbonitrile]
≥ 80%: percent effect (mortality or growth inhibition) at 200 ppm [1] | percent effect (mortality or growth inhibition) at 200 ppm [2] | percent control (mortality, anti-feedant effect or growth inhibition) at 200 ppm [3] | mortality at 24 ppm [4] | percent control (mortality, anti-feedant effect or growth inhibition) at 200 ppm [5] | percent effect (mortality or growth inhibition) at 200 ppm [6]

CCS(=O)(=O)c1cc(C2(C#N)CC2)cnc1-c1coc2cc(C3CC3)ccc2c1=O [P.5, 1-[6-(7-cyclopropyl-4-oxo-chromen-3-yl)-5-ethylsulfonyl-3-pyridyl]-cyclopropane-carbonitrile]
≥ 80%: percent effect (mortality or growth inhibition) at 200 ppm [1] | percent effect (mortality or growth inhibition) at 200 ppm [2] | percent control (mortality, anti-feedant effect or growth inhibition) at 200 ppm [3] | percent control (mortality, anti-feedant effect or growth inhibition) at 200 ppm [5] | percent effect (mortality or growth inhibition) at 200 ppm [6]

CCS(=O)(=O)c1cc(C2(C#N)CC2)cnc1-c1coc2cc(-c3ccc(F)cc3)ccc2c1=O [P.6, 1-[5-ethylsulfonyl-6-[7-(4-fluorophenyl)-4-oxo-chromen-3-yl]-3-pyridyl]cyclopropane-carbonitrile]
≥ 80%: percent effect (mortality or growth inhibition) at 200 ppm [1] | percent effect (mortality or growth inhibition) at 200 ppm [2] | percent control (mortality, anti-feedant effect or growth inhibition) at 200 ppm [5]

CCS(=O)(=O)c1cc(C2(C#N)CC2)cnc1-c1coc2cc(-c3cc(F)cc(F)c3)ccc2c1=O [P.7, 1-[6-[7-(3,5-difluorophenyl)-4-oxo-chromen-3-yl]-5-ethylsulfonyl-3-pyridyl]-cyclopropanecarbonitrile]
≥ 80%: percent effect (mortality or growth inhibition) at 200 ppm [1] | percent effect (mortality or growth inhibition) at 200 ppm [2] | percent control (mortality, anti-feedant effect or growth inhibition) at 200 ppm [3] | percent control (mortality, anti-feedant effect or growth inhibition) at 200 ppm [5] | percent effect (mortality or growth inhibition) at 200 ppm [6]
